pIC50: −log10 of the molar value.
Tested on: HBsAg
Test: HBsAg assay (CLIA of secreted HBsAg in HepG2.2.15 culture supernatant)
Assay type: cell-based, HBV
Details: Hepatitis B virus, HepG2.2.15, read-out: IC50 (HBsAg assay)
Description: HepG2.2.15 cells (Acs et al. Proc Natl Acad Sci USA, 84, (1987), 4641-4), a constitutively HBV-expressing cell line were cultured in DMEM+Glutamax-I medium (Invitrogen, Carlsbad, Calif., USA), supplemented with 10% fetal bovine serum (Invitrogen) and G418 (Invitrogen) at a final concentration of 200 mg/L and maintained in 5% CO2 at 37° C.
HepG2.2.15 cells were seeded in duplicate into white, 96-well plates at 1.5×10^4 cells/well. The cells were treated with a three-fold serial dilution series of the compounds in DMSO. The final DMSO concentration in all wells was 1% and DMSO was used as no drug control.
The HBsAg chemiluminescence immunoassay (CLIA) kit (Autobio Diagnostics Co., Zhengzhou, China, Catalog number: CL0310-2) was used to measure the levels of secreted HBV antigens semi-quantitatively. For the detection 50 μL/well culture supernatant was used and HBsAg was quantified using HBsAg chemiluminescence immunoassay (CLIA) kit (Autobio Diagnostics Co., Zhengzhou, China, Catalog number: CL0310-2), 50 μL of the supernatant was transferred to the CLIA assay plate and 50 μL of enzyme conjugate reagent was added into each well. The plates were sealed and gently agitated for 1 hour at room temperature. The supernatant-enzyme-mixture was discarded and wells were washed 6 times with 300 μL of PBS. The residual liquid was removed by plating the CLIA plate right side down on absorbent tissue paper. 25 μL of substrates A and B were added to each well. Luminance was measured using a luminometer (Mithras LB 940 Multimode Microplate Reader) after 10 minutes incubation. Dose-response curves were generated and the IC50 value was extrapolated by using the E-WorkBook Suite (ID Business Solutions Ltd., Guildford, UK). The IC50 was defined as the compound concentration at which HBsAg secretion was reduced by 50% compared to the no drug control.

SMILES	pIC50
Cc1ccc(C(=O)N2CCc3nc(-c4ccccn4)ncc3C2)nc1 [Example 27, (5-Methyl-2-pyridyl)-[2-(2-pyridyl)-7,8-dihydro-5H-pyrido[4,3-d]pyrimidin-6-yl]methanone]	4.62
Cc1ccc(C(=O)N2CCc3nc(-c4ccccn4)ncc3C2)cc1F [Example 28, (3-Fluoro-4-methyl-phenyl)-[2-(2-pyridyl)-7,8-dihydro-5H-pyrido[4,3-d]pyrimidin-6-yl]methanone]	5.03
COc1ccc(C(=O)N2CCc3nc(-c4ccccn4)ncc3C2)nc1 [Example 29, (5-Methoxy-2-pyridyl)-[2-(2-pyridyl)-7,8-dihydro-5H-pyrido[4,3-d]pyrimidin-6-yl]methanone]	4.47
COc1c(F)cc(C(=O)N2CCc3nc(-c4ccccn4)ncc3C2)cc1F [Example 30, (3,5-Difluoro-4-methoxy-phenyl)-[2-(2-pyridyl)-7,8-dihydro-5H-pyrido[4,3-d]pyrimidin-6-yl]methanone]	4.60
Cc1ccc(C(=O)N2CCc3nc(-c4ccccn4)ncc3C2)cn1 [Example 31, (6-Methyl-3-pyridyl)-[2-(2-pyridyl)-7,8-dihydro-5H-pyrido[4,3-d]pyrimidin-6-yl]methanone]	4.50
Cc1csc(C(=O)N2CCc3nc(-c4ccccn4)ncc3C2)c1 [Example 32, (4-Methyl-2-thienyl)-[2-(2-pyridyl)-7,8-dihydro-5H-pyrido[4,3-d]pyrimidin-6-yl]methanone]	5.78
Cc1cc(C(=O)N2CCc3nc(-c4ccccn4)ncc3C2)no1 [Example 33, (5-Methylisoxazol-3-yl)-[2-(2-pyridyl)-7,8-dihydro-5H-pyrido[4,3-d]pyrimidin-6-yl]methanone]	5.09
COc1ccc(C(=O)N2CCc3nc(-c4ccccn4)ncc3C2)cn1 [Example 36, (6-Methoxy-3-pyridyl)-[2-(2-pyridyl)-7,8-dihydro-5H-pyrido[4,3-d]pyrimidin-6-yl]methanone]	5.40
O=C(c1cc(F)cc(F)c1)N1CCc2nc(-c3ccccn3)ncc2C1 [Example 37, (3,5-Difluorophenyl)-[2-(2-pyridyl)-7,8-dihydro-5H-pyrido[4,3-d]pyrimidin-6-yl]methanone]	4.59
COc1cc(F)cc(C(=O)N2CCc3nc(-c4ccccn4)ncc3C2)c1 [Example 38, (3-Fluoro-5-methoxy-phenyl)-[2-(2-pyridyl)-7,8-dihydro-5H-pyrido[4,3-d]pyrimidin-6-yl]methanone]	4.66
COc1ccc(C(=O)N2CCc3nc(-c4ccccn4)ncc3C2)cc1 [Example 39, (4-Methoxyphenyl)-[2-(2-pyridyl)-7,8-dihydro-5H-pyrido[4,3-d]pyrimidin-6-yl]methanone]	4.97
COCCCOc1ccc(C(=O)N2CCc3nc(-c4ncccn4)ncc3C2C)cc1Cl (centres unmarked) [Example 40, [3-Chloro-4-(3-methoxypropoxy)phenyl]-(5-methyl-2-pyrimidin-2-yl-7,8-dihydro-5H-pyrido[4,3-d]pyrimidin-6-yl)methanone]	5.71
Cc1csc(C(=O)N2CCc3nc(-c4ccccn4)ncc3C2C)c1 (centres unmarked) [Example 41, [5-Methyl-2-(2-pyridyl)-7,8-dihydro-5H-pyrido[4,3-d]pyrimidin-6-yl]-(4-methyl-2-thienyl)methanone]	6.42
CC1c2cnc(-c3ccccn3)nc2CCN1C(=O)c1ccc(Cl)s1 (centres unmarked) [Example 42, (5-Chloro-2-thienyl)-[5-methyl-2-(2-pyridyl)-7,8-dihydro-5H-pyrido[4,3-d]pyrimidin-6-yl]methanone]	6.59
Cc1ccc(C(=O)N2CCc3nc(-c4ccccn4)ncc3C2C)s1 (centres unmarked) [Example 43, [5-Methyl-2-(2-pyridyl)-7,8-dihydro-5H-pyrido[4,3-d]pyrimidin-6-yl]-(5-methyl-2-thienyl)methanone]	6.49
CC1c2cnc(-c3ccccn3)nc2CCN1C(=O)c1ccsc1 (centres unmarked) [Example 44, [5-Methyl-2-(2-pyridyl)-7,8-dihydro-5H-pyrido[4,3-d]pyrimidin-6-yl]-(3-thienyl)methanone]	5.61
Cc1ncoc1C(=O)N1CCc2nc(-c3ccccn3)ncc2C1C (centres unmarked) [Example 45, (4-Methyloxazol-5-yl)-[5-methyl-2-(2-pyridyl)-7,8-dihydro-5H-pyrido[4,3-d]pyrimidin-6-yl]methanone]	5.84
CC1c2cnc(-c3ccccn3)nc2CCN1C(=O)c1ccc2cc[nH]c2c1 (centres unmarked) [Example 46, 1H-ndol-6-yl-[5-methyl-2-(2-pyridyl)-7,8-dihydro-5H-pyrido[4,3-d]pyrimidin-6-yl]methanone]	5.68

SMILES	pIC50
CC1c2cnc(-c3ccccn3)nc2CCN1C(=O)c1ccc2[nH]ncc2c1 (centres unmarked) [Example 47, 1H-indazol-5-yl-[5-methyl-2-(2-pyridyl)-7,8-dihydro-5H-pyrido[4,3-d]pyrimidin-6-yl]methanone]	5.61
CC1c2cnc(-c3ccccn3)nc2CCN1C(=O)c1cc2ccccc2s1 (centres unmarked) [Example 48, Benzothiophen-2-yl-[5-methyl-2-(2-pyridyl)-7,8-dihydro-5H-pyrido[4,3-d]pyrimidin-6-yl]methanone]	6.33
CC1c2cnc(-c3ccccn3)nc2CCN1C(=O)c1cccs1 (centres unmarked) [Example 49, [5-Methyl-2-(2-pyridyl)-7,8-dihydro-5H-pyrido[4,3-d]pyrimidin-6-yl]-(2-thienyl)methanone]	5.95
Cc1ccsc1C(=O)N1CCc2nc(-c3ccccn3)ncc2C1C (centres unmarked) [Example 50, [5-Methyl-2-(2-pyridyl)-7,8-dihydro-5H-pyrido[4,3-d]pyrimidin-6-yl]-(3-methyl-2-thienyl)methanone]	4.56
CC1c2cnc(-c3ccccn3)nc2CCN1C(=O)c1nccs1 (centres unmarked) [Example 51, [5-Methyl-2-(2-pyridyl)-7,8-dihydro-5H-pyrido[4,3-d]pyrimidin-6-yl]-thiazol-2-yl-methanone]	6.20
CC1c2cnc(-c3ccccn3)nc2CCN1C(=O)c1ccc(Br)s1 (centres unmarked) [Example 53, (5-Bromo-2-thienyl)-[5-methyl-2-(2-pyridyl)-7,8-dihydro-5H-pyrido[4,3-d]pyrimidin-6-yl]methanone]	6.29
CC1c2cnc(-c3ccccn3)nc2CCN1C(=O)c1cncs1 (centres unmarked) [Example 54, [5-Methyl-2-(2-pyridyl)-7,8-dihydro-5H-pyrido[4,3-d]pyrimidin-6-yl]-thiazol-5-yl-methanone]	4.94
Cc1cnc(C(=O)N2CCc3nc(-c4ccccn4)ncc3C2C)s1 (centres unmarked) [Example 55, [5-Methyl-2-(2-pyridyl)-7,8-dihydro-5H-pyrido[4,3-d]pyrimidin-6-yl]-(5-methylthiazol-2-yl)methanone]	6.65
CC1c2cnc(-c3ccccn3)nc2CCN1C(=O)c1ncc[nH]1 (centres unmarked) [Example 56, 1H-Imidazol-2-yl-[5-methyl-2-(2-pyridyl)-7,8-dihydro-5H-pyrido[4,3-d]pyrimidin-6-yl]methanone]	5.97
CC1c2cnc(-c3ccccn3)nc2CCN1C(=O)c1nccn1C (centres unmarked) [Example 57, (1-Methylimidazol-2-yl)-[5-methyl-2-(2-pyridyl)-7,8-dihydro-5H-pyrido[4,3-d]pyrimidin-6-yl]methanone]	5.49
CC1c2cnc(-c3ccccn3)nc2CCN1C(=O)c1ncco1 (centres unmarked) [Example 60, [5-Methyl-2-(2-pyridyl)-7,8-dihydro-5H-pyrido[4,3-d]pyrimidin-6-yl]-oxazol-2-yl-methanone]	5.58
Cc1nc(C(=O)N2CCc3nc(-c4ccccn4)ncc3C2C)sc1C (centres unmarked) [Example 61, (4,5-Dimethylthiazol-2-yl)-[5-methyl-2-(2-pyridyl)-7,8-dihydro-5H-pyrido[4,3-d]pyrimidin-6-yl]methanone]	7.09
CC1c2cnc(-c3ncccn3)nc2CCN1C(=O)c1nn(C)c2ccccc12 (centres unmarked) [Example 62, (1-Methylindazol-3-yl)-(5-methyl-2-pyrimidin-2-yl-7,8-dihydro-5H-pyrido[4,3-d]pyrimidin-6-yl)methanone]	6.38
CC1c2cnc(-c3ncccn3)nc2CCN1C(=O)c1n[nH]c2ccccc12 (centres unmarked) [Example 63, 1H-indazol-3-yl-(5-methyl-2-pyrimidin-2-yl-7,8-dihydro-5H-pyrido[4,3-d]pyrimidin-6-yl)methanone]	6.35
CC1c2cnc(-c3ncccn3)nc2CCN1C(=O)c1n[nH]c2ccc(F)cc12 (centres unmarked) [Example 64, (5-Fluoro-1H-indazol-3-yl)-(5-methyl-2-pyrimidin-2-yl-7,8-dihydro-5H-pyrido[4,3-d]pyrimidin-6-yl)methanone]	6.68
CC1c2cnc(-c3ncccn3)nc2CCN1C(=O)c1nn(Cc2ccccc2)c2ccccc12 (centres unmarked) [Example 65, (1-Benzylindazol-3-yl)-(5-methyl-2-pyrimidin-2-yl-7,8-dihydro-5H-pyrido[4,3-d]pyrimidin-6-yl)methanone]	6.41
COc1ccc2[nH]nc(C(=O)N3CCc4nc(-c5ncccn5)ncc4C3C)c2c1 (centres unmarked) [Example 66, (5-Methoxy-1H-indazol-3-yl)-(5-methyl-2-pyrimidin-2-yl-7,8-dihydro-5H-pyrido[4,3-d]pyrimidin-6-yl)methanone]	5.87

— patent publication US10968217B2, “Tetrahydropyridopyrimidines for the treatment and prophylaxis of hepatitis B virus infection” (Hoffmann-La Roche Inc., priority 2016, dated 2021)
